Patent US9670157B2, “Benzylamine derivatives” (KALVISTA PHARMACEUTICALS LIMITED, priority 2013, dated 2017)

Assays:
[1] = Pharmacokinetics following a single oral dose in rats; format: in vivo; conditions: rat, nominal 10 mg/kg, male Sprague-Dawley rats, plasma
Experimental: Pharmacokinetic studies of selected examples were performed to assess the pharmacokinetics following a single oral dose in male Sprague-Dawley rats. Typically, either two or three rats were given a single po dose of 5 mL/kg of a nominal 2 mg/mL (10 mg/kg) composition of test compound in either 5% cremophor:5% ethanol:90% phosphate buffered saline or 20% Labrasol:80% water. Following dosing, blood samples were collected over a period of 8 hours. Typical sample times include 5, 15 and 30 minutes then 1, 2, 4, 6 and 8 hours. Following collection, blood samples were centrifuged and the plasma fraction analysed for concentration of test compound by LCMS.

Human KLK1 = Human KLK1 (Homo sapiens (Human), UniProt P06870); assay: Determination of the IC50 for KLK1; format: biochemical; conditions: 37° C., fluorogenic substrate H-DVal-Leu-Arg-AFC
In short: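 KLK1 inhibition was measured in vitro following standard published methods. Human KLK1 (Callbiochem) was incubated at 37° C. with the fluorogenic substrate H-DVal-Leu-Arg-AFC in the presence of a range of test compound concentrations. Residual enzyme activity, taken as the initial reaction rate, was followed by the change in optical absorbance at 410 nm, and IC50 values were derived.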

Human plasma kallikrein = Human plasma kallikrein (Homo sapiens (Human), UniProt P03952); assay: Determination of the IC50 for Plasma Kallikrein; format: biochemical; conditions: 37° C., fluorogenic substrate H-DPro-Phe-Arg-AFC; read-out: IC50 (human PKal)
Experimental: Human plasma kallikrein (Protogen) was incubated at 37° C. with the fluorogenic substrate H-DPro-Phe-Arg-AFC and various concentrations of the test compound. Residual enzyme activity (initial rate of reaction) was determined by measuring the change in optical absorbance at 410 nm and the IC50 value for the test compound was determined.

Factor XIIa = Factor XIIa (Homo sapiens (Human), UniProt P00748); assay: Determination of Enzyme Selectivity: Factor XIIa; format: biochemical; conditions: substrate at Km concentration
Experimental: Human serine protease enzymes plasmin, thrombin, trypsin, Factor Xa and Factor XIIa were assayed for enzymatic activity using an appropriate fluorogenic substrate. Protease activity was measured by monitoring the accumulation of liberated fluorescence from the substrate over 5 minutes. The linear rate of fluorescence increase per minute was expressed as percentage (%) activity. The Km for the cleavage of each substrate was determined by standard transformation of the Michaelis-Menten equation.

Sequence of Factor XIIa (P00748 373-615): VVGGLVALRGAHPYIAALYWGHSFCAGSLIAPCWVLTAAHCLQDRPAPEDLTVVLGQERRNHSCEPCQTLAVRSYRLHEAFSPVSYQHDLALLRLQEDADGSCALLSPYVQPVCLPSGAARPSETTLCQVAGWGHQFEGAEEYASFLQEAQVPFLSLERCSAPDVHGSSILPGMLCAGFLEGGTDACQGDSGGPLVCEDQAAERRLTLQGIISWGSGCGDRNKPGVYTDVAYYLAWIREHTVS
Sequence of Human plasma kallikrein (P03952 391-638): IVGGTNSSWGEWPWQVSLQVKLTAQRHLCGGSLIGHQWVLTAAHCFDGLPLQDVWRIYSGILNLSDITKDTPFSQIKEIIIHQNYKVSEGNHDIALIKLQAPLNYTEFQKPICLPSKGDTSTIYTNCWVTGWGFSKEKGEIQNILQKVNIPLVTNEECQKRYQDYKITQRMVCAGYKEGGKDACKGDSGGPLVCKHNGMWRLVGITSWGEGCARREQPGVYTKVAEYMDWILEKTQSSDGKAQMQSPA
Sequence of Human plasma kallikrein (P03952 20-390 partner): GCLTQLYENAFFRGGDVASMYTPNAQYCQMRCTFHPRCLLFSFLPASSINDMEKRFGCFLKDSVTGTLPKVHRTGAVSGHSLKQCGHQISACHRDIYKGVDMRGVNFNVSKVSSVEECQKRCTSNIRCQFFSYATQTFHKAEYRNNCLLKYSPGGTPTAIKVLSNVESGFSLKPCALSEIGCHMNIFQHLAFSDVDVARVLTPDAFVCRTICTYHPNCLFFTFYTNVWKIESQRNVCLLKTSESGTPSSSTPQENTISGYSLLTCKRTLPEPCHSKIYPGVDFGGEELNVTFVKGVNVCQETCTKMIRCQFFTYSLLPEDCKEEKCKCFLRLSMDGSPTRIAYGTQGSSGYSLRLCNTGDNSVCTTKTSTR
Sequence of Human KLK1 (P06870 25-262): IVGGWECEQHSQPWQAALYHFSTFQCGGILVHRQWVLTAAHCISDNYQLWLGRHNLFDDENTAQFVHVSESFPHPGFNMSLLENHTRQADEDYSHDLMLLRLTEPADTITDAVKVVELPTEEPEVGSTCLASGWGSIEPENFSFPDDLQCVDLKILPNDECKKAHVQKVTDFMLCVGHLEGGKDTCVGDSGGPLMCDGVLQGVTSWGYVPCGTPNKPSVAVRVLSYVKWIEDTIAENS

Structure (SMILES) | Cmax [1] [ng/mL] | Tmax [1] [h] | IC50 (Human KLK1) [µM] | IC50 (Human plasma kallikrein) [nM] | IC50 (Factor XIIa) [µM]
Cc1cc(C(=O)NCc2ccc(CN)cc2)c(C)n1Cc1csc(-c2ccsc2)n1 [Example 37, 2,5-Dimethyl-1-(2-thiophen-3-yl-thiazol-4-ylmethyl)-1H-pyrrole-3-carboxylic acid 4-aminomethyl-benzylamide] | 171 | 3.5 | > 10 | 170 | 
Cc1cc(C(=O)NCc2ccc(CN)nc2)c(C)n1Cc1csc(-c2ccccc2)n1 [Example 43, 2,5-Dimethyl-1-(2-phenyl-thiazol-4-ylmethyl)-1H-pyrrole-3-carboxylic acid (6-aminomethyl-pyridin-3-ylmethyl)-amide] | 71 | 4 | > 10 | 196 | 
Cc1cc(C(=O)NCc2ccc(CN)c(F)c2)c(C)n1Cc1csc(-c2ccccc2)n1 [Example 45, 2,5-Dimethyl-1-(2-phenyl-thiazol-4-ylmethyl)-1H-pyrrole-3-carboxylic acid 4-aminomethyl-3-fluoro-benzylamide] | 228 | 2.58 | > 10 | 135 | 
Cc1cnn(Cc2ccc(Cn3cnc(C(=O)NCc4ccc(CN)cc4)c3)cc2)c1 [Example 104, 1-[4-(4-Methyl-pyrazol-1-ylmethyl)-benzyl]-1H-imidazole-4-carboxylic acid 4-aminomethyl-benzylamide] |  |  | > 10 | 30 | 
Cc1cnn(Cc2ccc(Cn3cnc(C(=O)NCc4ccc(C5(N)CC5)cc4)c3)cc2)c1 [Example 105, 1-[4-(4-Methyl-pyrazol-1-ylmethyl)-benzyl]-1H-imidazole-4-carboxylic acid 4-(1-amino-cyclopropyl)-benzylamide] |  |  | > 10 | 941 | 
Cc1cnn(Cc2ccc(Cn3cc(C(=O)NCc4ccc(CN)cc4C)cn3)cc2)c1 [Example 106, 1-[4-(4-Methyl-pyrazol-1-ylmethyl)-benzyl]-1H-pyrazole-4-carboxylic acid 4-aminomethyl-2-methyl-benzylamide] |  |  | > 10 | 2 | 
Cc1cnn(Cc2ccc(Cn3cnc(C(=O)NCc4ccc(CN)cc4C)c3)cc2)c1 [Example 107, 1-[4-(4-Methyl-pyrazol-1-ylmethyl)-benzyl]-1H-imidazole-4-carboxylic acid 4-aminomethyl-2-methyl-benzylamide] |  |  | > 10 | 3 | 
Cc1cnn(Cc2ccc(Cn3cc(C(=O)NCc4ccc(CN)cc4)nn3)cc2)c1 [Example 108, 1-[4-(4-Methyl-pyrazol-1-ylmethyl)-benzyl]-1H-[1,2,3]triazole-4-carboxylic acid 4-aminomethyl-benzylamide] |  |  | > 10 | 33 | 
Cc1cnn(Cc2ccc(Cn3cc(C(=O)NCc4ccc(CN)cc4C)nn3)cc2)c1 [Example 109, 1-[4-(4-Methyl-pyrazol-1-ylmethyl)-benzyl]-1H-[1,2,3]triazole-4-carboxylic acid 4-aminomethyl-2-methyl-benzylamide] |  |  | > 10 | 5 | 
Cc1cnn(Cc2ccc(Cn3cc(C(=O)NCc4ccc(C5(N)CC5)cc4)nn3)cc2)c1 [Example 110, 1-[4-(4-Methyl-pyrazol-1-ylmethyl)-benzyl]-1H-[1,2,3]triazole-4-carboxylic acid 4-(1-amino-cyclopropyl)-benzylamide] |  |  | > 10 | 2580 | 
Cc1cnn(Cc2ccc(Cn3cc(C(=O)NCc4c(C)cc(CN)cc4C)cn3)cc2)c1 [Example 111, 1-[4-(4-Methyl-pyrazol-1-ylmethyl)-benzyl]-1H-pyrazole-4-carboxylic acid 4-aminomethyl-2,6-dimethyl-benzylamide] |  |  | > 10 | 1 | 
Cc1cnn(Cc2ccc(Cn3cnc(C(=O)NCc4c(C)cc(CN)cc4C)c3)cc2)c1 [Example 112, 1-[4-(4-Methyl-pyrazol-1-ylmethyl)-benzyl]-1H-imidazole-4-carboxylic acid 4-aminomethyl-2,6-dimethyl-benzylamide] |  |  | > 10 | 2 | 
Cc1cnn(Cc2ccc(Cn3cc(C(=O)NCc4c(C)cc(CN)cc4C)nn3)cc2)c1 [Example 113, 1-[4-(4-Methyl-pyrazol-1-ylmethyl)-benzyl]-1H-[1,2,3]triazole-4-carboxylic acid 4-aminomethyl-2,6-dimethyl-benzylamide] |  |  | > 10 | 2 | 
Cc1cnn(Cc2ccc(Cn3cc(C(=O)NCc4c(C)cc(CN)cc4C)c(C)n3)cc2)c1 [Example 114, 3-Methyl-1-[4-(4-methyl-pyrazol-1-ylmethyl)-benzyl]-1H-pyrazole-4-carboxylic acid 4-aminomethyl-2,6-dimethyl-benzylamide] |  |  | > 10 | 0.6 | 
Cc1cnn(Cc2ccc(Cn3ncc(C(=O)NCc4c(C)cc(CN)cc4C)c3C)cc2)c1 [Example 115, 5-Methyl-1-[4-(4-methyl-pyrazol-1-ylmethyl)-benzyl]-1H-pyrazole-4-carboxylic acid 4-aminomethyl-2,6-dimethyl-benzylamide] |  |  | > 10 | 8 | 
Cc1cnn(Cc2ccc(Cn3nc(C)c(C(=O)NCc4c(C)cc(CN)cc4C)c3C)cc2)c1 [Example 116, 3,5-Dimethyl-1-[4-(4-methyl-pyrazol-1-ylmethyl)-benzyl]-1H-pyrazole-4-carboxylic acid 4-aminomethyl-2,6-dimethyl-benzylamide] |  |  | > 10 | 11700 | 
Cc1cnn(Cc2ccc(Cn3cc(C(=O)NCc4ccc(CN)c(F)c4)c(C(F)(F)F)n3)cc2)c1 [Example 117, 1-[4-(4-Methyl-pyrazol-1-ylmethyl)-benzyl]-3-trifluoromethyl-1H-pyrazole-4-carboxylic acid 4-aminomethyl-3-fluoro-benzylamide] |  |  | > 10 | 51 | 
Cc1cnn(Cc2ccc(Cn3cc(C(=O)NCc4c(C)cc(CN)cc4C)c(C(F)(F)F)n3)cc2)c1 [Example 118, 1-[4-(4-Methyl-pyrazol-1-ylmethyl)-benzyl]-3-trifluoromethyl-1H-pyrazole-4-carboxylic acid 4-aminomethyl-2,6-dimethyl-benzylamide] |  |  | > 10 | 1 | 
Cc1cnn(Cc2ccc(Cn3cc(C(=O)NCc4ccc(CN)c(F)c4C)c(C(F)(F)F)n3)cc2)c1 [Example 119, 1-[4-(4-Methyl-pyrazol-1-ylmethyl)-benzyl]-3-trifluoromethyl-1H-pyrazole-4-carboxylic acid 4-aminomethyl-3-fluoro-2-methyl-benzylamide] |  |  | > 10 | 9 | > 40
CCn1c(C(=O)NCc2ccc(CN)cc2)cc(C)c1Cc1ccc(Cn2cc(C)cn2)cc1 [Example 121, 1-Ethyl-4-methyl-5-[4-(4-methyl-pyrazol-1-ylmethyl)-benzyl]-1H-pyrrole-2-carboxylic acid 4-aminomethyl-benzylamide] |  |  | > 10 | 155 | 
CCn1c(C(=O)NCc2ccc(CN)cc2)cc(C)c1Cc1ccc(Cn2ccccc2=O)cc1 [Example 122, 1-Ethyl-4-methyl-5-[4-(2-oxo-2H-pyridin-1-ylmethyl)-benzyl]-1H-pyrrole-2-carboxylic acid 4-aminomethyl-benzylamide] |  |  | > 10 | 151 | 
CCn1c(C(=O)NCc2ccc(CN)cc2)cc(C)c1Cc1csc(-c2ccccc2)n1 [Example 123, 1-Ethyl-4-methyl-5-(2-phenyl-thiazol-4-ylmethyl)-1H-pyrrole-2-carboxylic acid 4-aminomethyl-benzylamide] |  |  | > 10 | 2150 | 
Cc1ccc2cc(Cn3cc(C(=O)NCc4c(C)cc(CN)cc4C)c(C(F)(F)F)n3)ccc2n1 [Example 126, 1-(2-Methyl-quinolin-6-ylmethyl)-3-trifluoromethyl-1H-pyrazole-4-carboxylic acid 4-aminomethyl-2,6-dimethyl-benzylamide] |  |  | 0.566 |  | > 40
Cc1ccc2cc(Cn3ncc(C(=O)NCc4c(C)cc(CN)cc4C)c3C(F)(F)F)ccc2n1 [Example 127, 1-(2-Methyl-quinolin-6-ylmethyl)-5-trifluoromethyl-1H-pyrazole-4-carboxylic acid 4-aminomethyl-2,6-dimethyl-benzylamide] |  |  | > 10 |  | > 40
Cc1ccc2cc(Cn3c(C)cc(C(=O)NCc4c(C)cc(CN)cc4C)c3C)ccc2n1 [Example 128, 2,5-Dimethyl-1-(2-methyl-quinolin-6-ylmethyl)-1H-pyrrole-3-carboxylic acid 4-aminomethyl-2,6-dimethyl-benzylamide] |  |  | 2.66 | 934 | 
Cc1cc(CN)cc(C)c1CNC(=O)c1cn(Cc2ccnc(N3CCCC3)c2)nc1C(F)(F)F [Example 129, 1-(2-Pyrrolidin-1-yl-pyridin-4-ylmethyl)-3-trifluoromethyl-1H-pyrazole-4-carboxylic acid 4-aminomethyl-2,6-dimethyl-benzylamide] |  |  | > 10 | 24 | 
